Laboratory results reported in the CheMixHub ionic liquid set.

Test: xn = mol fraction of the nth substance listed

CC(C)C[P+](C)(CC(C)C)CC(C)C.Cc1ccc(S(=O)(=O)[O-])cc1 + O
Settings | viscosity [mPa·s]
293.15 K, 101 kPa, x2 = 0.7599 | 68
293.15 K, 101 kPa, x2 = 0.8779 | 23
293.15 K, 101 kPa, x2 = 0.9283 | 11.6
293.15 K, 101 kPa, x2 = 0.9729 | 4
298.15 K, 100 kPa, x1 = 0.003319 | 1.115
298.15 K, 100 kPa, x1 = 0.00854 | 1.475
308.15 K, 100 kPa, x1 = 0.009239 | 1.175
333.15 K, 100 kPa, x1 = 0.9022 | 221
353.15 K, 100 kPa, x1 = 0.9022 | 79

Oc1cccc(O)c1O + CCCCCCCCCCCC[N+](C)(C)C.[Br-]
101.3 kPa, x2 = 0.333
Settings | electrical conductivity [S/m] | viscosity [mPa·s]
293.15 K | 0.00471 | –
298.15 K | 0.00821 | –
333.15 K | 0.14 | 400

CCO + CC[n+]1ccn(C)c1.COP(=O)([O-])OC
100 kPa, x2 = 0
Settings | viscosity [mPa·s]
298.15 K | 1.08
328.15 K | 0.646

CCO + CC[n+]1ccccc1.N#C[N-]C#N
Settings | viscosity [mPa·s]
288.15 K, 100 kPa, x1 = 1 | 1.29

CCCC[N+](CCCC)(CCCC)Cc1ccccc1.[Cl-] + O=C(O)[C@@H]1CCCN1 + O
electrical conductivity [S/m], 101 kPa
Settings | 298.15 K | 303.15 K | 308.15 K
x2 = 1.802e-05, x1 = 1.802e-05 | 0.0132 | 0.0149 | 0.0164
x2 = 1.804e-05, x1 = 5.406e-05 | 0.0279 | 0.0297 | 0.0314
x2 = 1.805e-05, x1 = 9.009e-05 | 0.0321 | 0.0338 | 0.0353
x2 = 4.506e-05, x1 = 1.802e-05 | 0.0156 | 0.0164 | 0.0176
x2 = 4.509e-05, x1 = 5.405e-05 | 0.0298 | 0.0313 | 0.0329
x2 = 4.511e-05, x1 = 9.009e-05 | 0.0339 | 0.0356 | 0.0372
x2 = 7.21e-05, x1 = 1.802e-05 | 0.0169 | 0.0183 | 0.0197
x2 = 7.214e-05, x1 = 5.405e-05 | 0.0314 | 0.0327 | 0.0341
x2 = 7.218e-05, x1 = 9.009e-05 | 0.0353 | 0.0367 | 0.0387
x2 = 9.913e-05, x1 = 1.802e-05 | 0.0184 | 0.0206 | 0.0213
x2 = 9.919e-05, x1 = 5.405e-05 | 0.0329 | 0.0335 | 0.0354
x2 = 9.925e-05, x1 = 9.008e-05 | 0.0368 | 0.0383 | 0.0409
x2 = 0.0001262, x1 = 1.802e-05 | 0.0209 | 0.0219 | 0.0229
x2 = 0.0001262, x1 = 5.405e-05 | 0.0337 | 0.0349 | 0.0366
x2 = 0.0001263, x1 = 9.008e-05 | 0.0384 | 0.0398 | 0.0423
x2 = 0.0001532, x1 = 1.802e-05 | 0.0223 | 0.0239 | 0.0251
x2 = 0.0001533, x1 = 5.405e-05 | 0.0345 | 0.0358 | 0.0381
x2 = 0.0001534, x1 = 9.008e-05 | 0.0395 | 0.0416 | 0.0445

CCO + CC[n+]1ccn(CCOC)c1.N#C[S-]
Settings | viscosity [mPa·s]
308.15 K, 100 kPa, x2 = 0 | 0.902
